In data set [1] the test system is Daoy. The data set is described as follows: Antitumor activity against human Daoy cells assessed as inhibition of cell proliferation. In kind it is functional, cell-based.
Data set [2] relates to D283 Med. The data set is described as follows: Antitumor activity against human D283 Med cells assessed as inhibition of cell proliferation. In kind it is functional, cell-based.
Data set [3] relates to Daoy. The data set is described as follows: Antiproliferative activity against human Daoy cells assessed as inhibition of cell proliferation measured after 4 days by WST-1 assay. It counts as functional, cell-based. Particulars: 96 h. On the technique in general: Formazan colour is commonly taken as a measure of viable cells.
Data set [4] is described as follows: Antiproliferative activity against human D556 Med cells assessed as inhibition of cell proliferation measured after 4 days by WST-1 assay. It counts as functional, cell-based. Particulars: 96 h.
A short description of data set [5]: Antitumor activity against human HD-MB03 cells assessed as inhibition of cell growth incubated for 72 hrs by CellTiter-Glo luminescent assay. It counts as functional. A general note: ATP-based viability assays read luminescence as a measure of living cells.
In data set [6] the test system is Daoy. Description: Antitumor activity against human Daoy cells assessed as inhibition of cell growth incubated for 72 hrs by CellTiter-Glo luminescent assay. It counts as functional.
Data set [7] concerns ONS-76. Description: Antitumor activity against human ONS-76 cells assessed as inhibition of cell growth incubated for 72 hrs by CellTiter-Glo luminescent assay. In kind it is functional.
A short description of data set [8]: Antitumor activity against human UW228 cells assessed as inhibition of cell growth incubated for 72 hrs by CellTiter-Glo luminescent assay. In kind it is functional.
Data set [9] can be described thus: Cytotoxicity against human D384 Med cells assessed as reduction in cell viability incubated for 48 hrs by Cell TiterGlo luminescent assay. Particulars: pooled result: one value given for 10 cell lines, strains, targets or settings. In kind it is functional, cell-based.
In data set [10] the test system is Daoy. Description: Antiproliferative activity against human Daoy cells assessed as reduction in cell viability incubated for 48 hrs by MTT assay. In kind it is functional, cell-based.
The subject of data set [11] is D283 Med. Description: Antiproliferative activity against human D283 Med cells assessed as reduction in cell viability incubated for 48 hrs by MTT assay. In kind it is functional, cell-based.
Data set [12] relates to Daoy. Description: Antiproliferative activity against human Daoy cells assessed as inhibition of cell growth incubated for 24 to 96 hrs by MTT assay. It counts as functional. Particulars: time 24-96 hrs.
Data set [13] deals with ONS-76. Description: Antiproliferative activity against human ONS-76 cells assessed as inhibition of cell growth incubated for 24 to 96 hrs by MTT assay. It counts as functional. Particulars: time 24-96 hrs.
Data set [14] concerns the target T1, Protein smoothened (Homo sapiens, UniProt Q99835, D473H). The data set is described as follows: Antagonist activity at resistant Smo D473H mutant (unknown origin) expressed in mouse C3H 10T1/2 cells cotransfected with Gli reporter gene assessed as Gli luciferase activity incubated for 24 hrs by dual luciferase assay. It counts as functional, cell-based. (In a reporter assay the amount or activity of a reporter protein is the signal.)

A short description of data set [15]: Ratio of AUC (0 to infinity) in brain to plasma of C57BL mouse at 20 mg/kg, iv by HPLC/MS/MS method. Particulars: brain and plasma, read-out: Ratio AUC. In kind it is ADME, organism-based.
The nature of data set [16]: Cytotoxicity against human D425 Med cells expressing Glt1-tTA:TRE-MYCN/Luc (GTML) assessed as reduction in cell viability incubated for 72 hrs by Resazurin assay. It counts as functional, cell-based.
Data set [17] relates to Daoy. Description: Antiproliferative activity against human Daoy cells assessed as inhibition of cell growth incubated for 72 hrs by Alamar blue dye based fluorescence spectrophotometric assay. It counts as functional.
A short description of data set [18]: Antiproliferative activity against human pateint derived Medulloblastoma cells assessed as inhibition of cell growth incubated for 72 hrs by Alamar blue dye based fluorescence spectrophotometric assay. It counts as functional.
Data set [19] can be described thus: Inhibition of hedgehog signalling in mouse NIH3T3 cells cotransfected with Gli/RE luciferase reporter gene assessed as Gli luciferase activity preincubated for 15 to 30 mins followed by ShhN stimulation and after 28 hrs by Steady-Glo reagent based luciferase assay.
Data set [20] can be described thus: Antitumor activity against human Med-211 FH cells xenografted in athymic nude mouse assessed as tumor regression at 75 mg/kg, po QD for 28 days. It counts as functional. Particulars: Med-211FH cell, 672 h, time 28 day, read-out: TGI.
Data set [21] is described as follows: Antitumor activity against human Med-1712FH cells xenografted in athymic nude mouse assessed as tumor regression at 75 mg/kg, po QD for 28 days. It counts as functional. Particulars: Med-1712FH cell, 672 h, time 28 day, read-out: TGI.
Data set [22] is described as follows: Anticancer activity against human UW228 cells assessed as reduction in cell viability incubated for 72 hrs by CCK assay. It counts as functional, cell-based. Particulars: UW228, 72 h.
Data set [23] is described as follows: Anticancer activity against human UW426 cells assessed as reduction in cell viability incubated for 72 hrs by CCK assay. It counts as functional, cell-based. Particulars: UW426, 72 h.
A short description of data set [24]: Anticancer activity against human MED-MEB-8A cells assessed as reduction in cell viability incubated for 72 hrs by CCK assay. It counts as functional, cell-based.
A short description of data set [25]: Anticancer activity against mouse Ptch+/- MB21 cells assessed as reduction in cell viability incubated for 72 hrs by CellTiter-Glo luminescent assay. In kind it is functional, cell-based.
The nature of data set [26]: Anticancer activity against mouse Ptch+/- MB55 cells assessed as reduction in cell viability incubated for 72 hrs by CellTiter-Glo luminescent assay. It counts as functional, cell-based.
Data set [27] can be described thus: Anticancer activity against mouse Ptch+/- Trp53-/- MB53 cells assessed as reduction in cell viability incubated for 72 hrs by CellTiter-Glo luminescent assay. It counts as functional, cell-based.
Data set [28] concerns the target T1, Protein smoothened. Description: Inhibition of Smo D473H mutant (unknown origin) expressed in mouse NIH3T3 cells cotransfected with Gli luciferase reporter gene assessed as Gli luciferase activity incubated for 48 hrs by Bright-Glo reagent based luciferase assay. It counts as cell-based.
Data set [29] is described as follows: Inhibition of hedgehog signalling in mouse NIH3T3 cells cotransfected with Gli luciferase reporter gene assessed as Gli luciferase activity incubated for 48 hrs by Bright-Glo reagent based luciferase assay. It counts as cell-based. Particulars: NIH3T3, 48 h.
Data set [30] concerns Daoy. Description: Antitumor activity against human Daoy cells assessed as inhibition of cell proliferation incubated for 72 hrs by CellTiter-Glo luminescent assay. It counts as functional, cell-based.
Data set [31] deals with D283 Med. Description: Antitumor activity against human D283 Med cells assessed as inhibition of cell proliferation incubated for 72 hrs by CellTiter-Glo luminescent assay. In kind it is functional, cell-based.

Converted amounts (≈) assume the structure as drawn.

T1 sequence (Q99835 28-787 D473H limits assumed): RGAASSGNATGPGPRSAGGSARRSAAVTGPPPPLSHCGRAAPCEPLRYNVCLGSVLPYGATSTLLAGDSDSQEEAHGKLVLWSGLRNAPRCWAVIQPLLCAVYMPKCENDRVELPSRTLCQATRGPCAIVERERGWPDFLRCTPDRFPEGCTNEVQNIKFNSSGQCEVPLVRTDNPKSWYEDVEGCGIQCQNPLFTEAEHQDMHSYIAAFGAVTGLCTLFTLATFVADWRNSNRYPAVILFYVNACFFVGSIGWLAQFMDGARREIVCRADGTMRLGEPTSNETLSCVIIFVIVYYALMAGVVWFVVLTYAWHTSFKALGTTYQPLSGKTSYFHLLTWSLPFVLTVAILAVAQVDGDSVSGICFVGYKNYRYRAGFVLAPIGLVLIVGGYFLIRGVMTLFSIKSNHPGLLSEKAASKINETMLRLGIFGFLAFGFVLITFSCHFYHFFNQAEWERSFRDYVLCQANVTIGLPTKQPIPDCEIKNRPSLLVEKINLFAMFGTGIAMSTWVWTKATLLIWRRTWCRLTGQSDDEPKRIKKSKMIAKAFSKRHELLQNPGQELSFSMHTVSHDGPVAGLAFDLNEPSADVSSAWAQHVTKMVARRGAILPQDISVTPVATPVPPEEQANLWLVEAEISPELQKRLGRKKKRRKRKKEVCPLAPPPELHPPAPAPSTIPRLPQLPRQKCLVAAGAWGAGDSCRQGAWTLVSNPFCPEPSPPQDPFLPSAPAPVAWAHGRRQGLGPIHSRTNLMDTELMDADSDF

Regarding `CCN1CCN(Cc2ccc(-c3cc4c(N[C@H](C)c5ccccc5)ncnc4[nH]3)cc2)CC1` [AEE-788], the IC50 with Daoy [1] turned out to be 1700 nM; with D283 Med [2] it was 3.8 µM.
For `O=[As][As+](=O)[O-]` (stereo not drawn) [ARSENIC TRIOXIDE], the IC50 (with Daoy [3]; in data set [4]) was 400 nM in each case.
As to `Cc1sc2c(c1C)C(c1ccc(Cl)cc1)=N[C@@H](CC(=O)Nc1ccc(O)cc1)c1nnc(C)n1-2` [BIRABRESIB], the GI50 (in [5]; with Daoy [6]; in the data set with ONS-76 [7]; in data set [8]) was 160 nM in each case.
As to `Nc1cc(C(F)(F)F)c(-c2cc(N3CCOCC3)nc(N3CCOCC3)n2)cn1` [BUPARLISIB], the IC50 in data set [9] turned out to be 279 nM.
Take `O=C(/C=C/c1ccc(CN(CCO)CCc2c[nH]c3ccccc23)cc1)NO` [DACINOSTAT]: the results for the half-maximal inhibitory concentration (IC50) in the data set on Daoy [10] and in the data set with D283 Med [11] were less than 100 nM and less than 200 nM, respectively.
Regarding `CC1=C(/C=C/C(C)=C/C=C/C(C)=C/C(=O)Nc2ccc(O)cc2)C(C)(C)CCC1` [FENRETINIDE], the results for the GI50 in the data set on Daoy [12] and in the data set with ONS-76 [13] were 5 µM and 2000 nM, respectively.
`Cc1c(Cc2ccccc2)nnc(N2CCN(c3cnc(C(C)(C)O)cn3)[C@H](C)C2)c1C` [LEQ506]: the IC50 on Protein smoothened [14] amounted to 96 nM. Further, the Kp in data set [15] was determined as 0.69.
Consider `CNC(=O)c1nn(C)c2c1C(C)(C)Cc1cnc(Nc3ccc(N4CCN(C)CC4)cc3)nc1-2` [MILCICLIB], for which the IC50 in data set [16] was found to be 940 nM.
Regarding `Cc1cn(-c2cc(NC(=O)c3ccc(C)c(Nc4nccc(-c5cccnc5)n4)c3)cc(C(F)(F)F)c2)cn1` [NILOTINIB], the IC50 in the data set with Daoy [17] was determined as 6 µM; in data set [18], 5 µM; in [19], 374 nM.
Regarding `CC(=O)c1c(C)c2cnc(Nc3ccc(N4CCNCC4)cn3)nc2n(C2CCCC2)c1=O` [PALBOCICLIB], the inhibition in vivo at 75 mg/kg in data set [20] and in [21] was 63% in each case.
As for `Cc1[nH]c2ccccc2c1CCNCc1ccc(/C=C/C(=O)NO)cc1` [PANOBINOSTAT], the figures for the IC50 in data set [22], in [23] and in data set [24] were 54 nM, 67 nM and 46 nM, respectively.
In the case of `Cn1cc(CNCC2CCN(c3ncc(C(=O)NO)cn3)CC2)c2ccccc21` [QUISINOSTAT], the IC50 in the data set on Daoy [10] is less than 100 nM; with D283 Med [11], less than 200 nM.
On to `O=C(O)c1ccc2c(c1)nc(Nc1cccc(Cl)c1)c1ccncc12` [SILMITASERTIB], for which the concentration for half-maximal inhibition (IC50) in data set [25], in data set [26] and in data set [27] was 2500 nM in each case.
Regarding `CCc1cc2c(c(OCC(F)(F)F)c(C(=O)NC3CCN(C(=O)CO)CC3)n2C)c(=O)n1CC(=O)c1ccccc1` [TAK-441], the IC50 at Protein smoothened [28] turned out to be 79 nM; in data set [29] it was 4.4 nM.
For `Cc1c(Cl)cccc1Nc1ccccc1C(=O)O` [TOLFENAMIC ACID], the IC50 worked out at 21.6 µg/mL (≈ 82.5 µM) with Daoy [30] and 20.8 µg/mL (≈ 79.5 µM) in the data set with D283 Med [31].

One may read the IC50 as the concentration that gives 50% inhibition. A word on the GI50: it is the concentration giving 50% growth inhibition.
